Measured values from publication PMC11748363, “Antimicrobial and Antiproliferative Properties of 2‐Phenyl‐N‐(Pyridin‐2‐yl)acetamides” (Chemical Biology & Drug Design, 2025).
In brackets after ≈: the same amount, converted by molar mass. Read-outs that look alike come from different tables or passages of the source.

What was measured:
[1] = test system: Mycobacterium tuberculosis H37Ra; experiment: Antimycobacterial microdilution broth MIC (resazurin), Mtb H37Ra; type: cell-based; settings: for MIC: Mycobacterium tuberculosis, H37RA, read-out: MIC Mtb H37Ra; for SI (selectivity index): SI = HepG2 IC50 (μM)/MIC MtbH37Ra (μM), calculated for compounds with MIC ≤ 31.25 μg/mL
[2] = test system: Mycolicibacterium smegmatis DSM 43465; experiment: Antimycobacterial microdilution broth MIC (resazurin), M. smegmatis; type: cell-based; settings: DSM43465, read-out: MIC M. smegmatis
[3] = test system: Mycolicibacterium aurum DSM 43999; experiment: Antimycobacterial microdilution broth MIC (resazurin), M. aurum; type: cell-based; settings: DSM43999, read-out: MIC M. aurum
[4] = test system: HepG2 cell line; experiment: Cytotoxicity CellTiter 96, HepG2; type: cell-based, human; settings: Homo sapiens, HepG2, 24 h, 24 h incubation; ^c compound precipitated in the testing medium; ^d over the limit of tested concentrations
[5] = test system: Staphylococcus aureus CCM 4223, ATCC 29213; experiment: Antibacterial microdilution broth MIC, SA; type: cell-based; settings: Staphylococcus aureus
[6] = test system: Staphylococcus aureus subsp. aureus CCM 4750, ATCC 43300 (MRSA); experiment: Antibacterial microdilution broth MIC, MRSA; type: cell-based; settings: Staphylococcus aureus
[7] = test system: Staphylococcus epidermidis CCM 4418, ATCC 12228; experiment: Antibacterial microdilution broth MIC, SE; type: cell-based
[8] = test system: Enterococcus faecalis CCM 4224, ATCC 29212; experiment: Antibacterial microdilution broth MIC, EF; type: cell-based
[9] = test system: Escherichia coli CCM 3954, ATCC 25922; experiment: Antibacterial microdilution broth MIC, EC; type: cell-based
[10] = test system: Acinetobacter baumannii DSM 30007, ATCC 19606; experiment: Antibacterial microdilution broth MIC, ACI; type: cell-based
[11] = test system: Pseudomonas aeruginosa CCM 3955, ATCC 27853; experiment: Antibacterial microdilution broth MIC, PA; type: cell-based
[12] = test system: Candida albicans CCM 8320, ATCC 24433; experiment: Antifungal microdilution broth MIC, CA
[13] = test system: Candida krusei CCM 8271, ATCC 6258; experiment: Antifungal microdilution broth MIC, CK; settings: Pichia kudriavzevii
[14] = test system: Candida parapsilosis CCM 8260, ATCC 22019; experiment: Antifungal microdilution broth MIC, CP; settings: Lodderomyces parapsilosis
[15] = test system: Candida tropicalis CCM 8264, ATCC 750; experiment: Antifungal microdilution broth MIC, CT
[16] = test system: Aspergillus fumigatus ATCC 204305; experiment: Antifungal microdilution broth MIC, AF
[17] = test system: Lichtheimia corymbifera CCM 8077; experiment: Antifungal microdilution broth MIC, LC
[18] = test system: Trichophyton interdigitale CCM 8377, ATCC 9533; experiment: Antifungal microdilution broth MIC, TI; settings: Trichophyton interdigitale
[19] = test system: Aspergillus flavus CCM 8363; experiment: Antifungal microdilution broth MIC, AFla
[20] = test system: Klebsiella pneumoniae CCM 4415, ATCC 10031; experiment: Antibacterial microdilution broth MIC, KP
[21] = ATCC204305, 24 h, read-out: MIC AF 24h
[22] = ATCC204305, 48 h, read-out: MIC AF 48h
[23] = CCM8077, 24 h, read-out: MIC LC 24h
[24] = CCM8077, 48 h, read-out: MIC LC 48h
[25] = CCM8363, 24 h, read-out: MIC AFla 24h
[26] = CCM8363, 48 h, read-out: MIC AFla 48h

| Compound | MIC ([1]; Calculated from MIC (μg/mL)) | MIC [1] | SI (selectivity index) [1] | MIC [2] | MIC [3] | IC50 [4] | MIC ([5]; 24 h, read-out: MIC SA 24h) | MIC ([5]; 48 h, read-out: MIC SA 48h) | MIC ([6]; 24 h, read-out: MIC MRSA 24h) | MIC ([6]; 48 h, read-out: MIC MRSA 48h) | MIC ([7]; 24 h, read-out: MIC SE 24h) | MIC ([7]; 48 h, read-out: MIC SE 48h) | MIC ([8]; 24 h, read-out: MIC EF 24h) | MIC ([8]; 48 h, read-out: MIC EF 48h) | MIC ([9]; 24 h, read-out: MIC EC 24h) | MIC ([9]; 48 h, read-out: MIC EC 48h) | MIC ([10]; 24 h, read-out: MIC ACI 24h) | MIC ([10]; 48 h, read-out: MIC ACI 48h) | MIC ([11]; 24 h, read-out: MIC PA 24h) | MIC ([11]; 48 h, read-out: MIC PA 48h) | also measured |
| --- | --- | --- | --- | --- | --- | --- | --- | --- | --- | --- | --- | --- | --- | --- | --- | --- | --- | --- | --- | --- | --- |
| O=C(Cc1ccc(C(F)(F)F)cc1)Nc1ccccn1 [Compound 28] | 112 µM | 31.2 µg/mL | 3.7 | > 500 µg/mL | > 500 µg/mL | 408 µM | > 500 µM | > 500 µM | > 500 µM | > 500 µM | > 500 µM | > 500 µM | > 500 µM | > 500 µM | > 500 µM | > 500 µM | > 500 µM | > 500 µM | > 500 µM | > 500 µM | MIC ([12]; 24 h, read-out: MIC CA 24h): > 500 µM; MIC ([12]; 48 h, read-out: MIC CA 48h): > 500 µM; MIC ([13]; 24 h, read-out: MIC CK 24h): > 500 µM; MIC ([13]; 48 h, read-out: MIC CK 48h): > 500 µM; MIC ([14]; 24 h, read-out: MIC CP 24h): > 500 µM; MIC ([14]; 48 h, read-out: MIC CP 48h): > 500 µM; MIC ([15]; 24 h, read-out: MIC CT 24h): > 500 µM; MIC ([15]; 48 h, read-out: MIC CT 48h): > 500 µM; MIC [16, 21]: > 500 µM; MIC [16, 22]: > 500 µM; MIC [17, 23]: > 500 µM; MIC [17, 24]: > 500 µM; MIC ([18]; 72 h, read-out: MIC TI 72h): > 500 µM; MIC ([18]; 120 h, read-out: MIC TI 120h): > 500 µM; MIC [19, 25]: > 500 µM; MIC [19, 26]: > 500 µM; MIC KP 24h [20]: > 500 µM; MIC KP 48h [20]: > 500 µM |
| O=C(Cc1cccc(C(F)(F)F)c1)Nc1cccc(Cl)n1 [Compound 27] | 99.3 µM | 31.2 µg/mL | 1.5 | > 500 µg/mL | 15.6 µg/mL (≈ 49.7 µM) | 146 µM | > 500 µM | > 500 µM | > 500 µM | > 500 µM | 250 µM (≈ 78.7 µg/mL) | 250 µM (≈ 78.7 µg/mL) | > 500 µM | > 500 µM | > 500 µM | > 500 µM | > 500 µM | > 500 µM | > 500 µM | > 500 µM | MIC ([12]; 24 h, read-out: MIC CA 24h): > 500 µM; MIC ([12]; 48 h, read-out: MIC CA 48h): > 500 µM; MIC ([13]; 24 h, read-out: MIC CK 24h): > 500 µM; MIC ([13]; 48 h, read-out: MIC CK 48h): > 500 µM; MIC ([14]; 24 h, read-out: MIC CP 24h): > 500 µM; MIC ([14]; 48 h, read-out: MIC CP 48h): > 500 µM; MIC ([15]; 24 h, read-out: MIC CT 24h): > 500 µM; MIC ([15]; 48 h, read-out: MIC CT 48h): > 500 µM; MIC [16, 21]: > 500 µM; MIC [16, 22]: > 500 µM; MIC [17, 23]: > 500 µM; MIC [17, 24]: > 500 µM; MIC ([18]; 72 h, read-out: MIC TI 72h): > 500 µM; MIC ([18]; 120 h, read-out: MIC TI 120h): > 500 µM; MIC [19, 25]: > 500 µM; MIC [19, 26]: > 500 µM; MIC KP 24h [20]: > 500 µM; MIC KP 48h [20]: > 500 µM |
| O=C(Cc1ccccc1)Nc1cccc(Cl)n1 [Compound 3] | 127 µM | 31.2 µg/mL | 3.42 | 15.6 µg/mL (≈ 63.3 µM) | 62.5 µg/mL (≈ 253 µM) | 433 µM | 500 µM (≈ 123 µg/mL) | 500 µM (≈ 123 µg/mL) | > 500 µM | > 500 µM | > 500 µM | > 500 µM | > 500 µM | > 500 µM | > 500 µM | > 500 µM | > 500 µM | > 500 µM | > 500 µM | > 500 µM | MIC ([12]; 24 h, read-out: MIC CA 24h): > 500 µM; MIC ([12]; 48 h, read-out: MIC CA 48h): > 500 µM; MIC ([13]; 24 h, read-out: MIC CK 24h): 250 µM (≈ 61.7 µg/mL); MIC ([13]; 48 h, read-out: MIC CK 48h): 500 µM (≈ 123 µg/mL); MIC ([14]; 24 h, read-out: MIC CP 24h): 500 µM (≈ 123 µg/mL); MIC ([14]; 48 h, read-out: MIC CP 48h): > 500 µM; MIC ([15]; 24 h, read-out: MIC CT 24h): > 500 µM; MIC ([15]; 48 h, read-out: MIC CT 48h): > 500 µM; MIC [16, 21]: > 500 µM; MIC [16, 22]: > 500 µM; MIC [17, 23]: > 500 µM; MIC [17, 24]: > 500 µM; MIC ([18]; 72 h, read-out: MIC TI 72h): 125 µM (≈ 30.8 µg/mL); MIC ([18]; 120 h, read-out: MIC TI 120h): 250 µM (≈ 61.7 µg/mL); MIC [19, 25]: > 500 µM; MIC [19, 26]: > 500 µM; MIC KP 24h [20]: > 500 µM; MIC KP 48h [20]: > 500 µM |
